# Data from patent US8586591B2, “Aminopyrazine derivative and medicine” (Nippon Shinyaku Co., Ltd., priority 2009, dated 2013).
# Where a name gives a salt, the structure may show the parent alone.
# Tests used:
# [1] = target: T1, JAK2 tyrosine kinase (Homo sapiens, UniProt O60674); experiment: Test 1: inhibitory activity to JAK2 tyrosine kinase (ELISA); format: biochemical; settings: 25 μM ATP in substrate solution, 30° C. for 1 hour, n=2
# T1 construct: purchased Carnabioscience Co
# Outline: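 This is an ELISA read at A450 (HRP anti-phosphotyrosine antibody, TMB) of biotin-peptide phosphorylation captured on streptavidin. Enzyme solution was 0.75 nM JAK2, and the substrate solution was 625 nM peptide with 25 μM ATP in Tris pH 7.5 buffer. The reaction ran 1 h at 30 °C with compounds in duplicate, and IC50 was fitted non-linearly.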
# [2] = target: T2, JAK3 tyrosine kinase (Homo sapiens, UniProt P52333); experiment: Test 1: inhibitory activity to JAK3 tyrosine kinase (ELISA); format: biochemical; settings: 25 μM ATP in substrate solution, 30° C. for 1 hour, n=2
# T2 construct: purchased Carnabioscience Co
# T2 sequence (P52333 1-1124): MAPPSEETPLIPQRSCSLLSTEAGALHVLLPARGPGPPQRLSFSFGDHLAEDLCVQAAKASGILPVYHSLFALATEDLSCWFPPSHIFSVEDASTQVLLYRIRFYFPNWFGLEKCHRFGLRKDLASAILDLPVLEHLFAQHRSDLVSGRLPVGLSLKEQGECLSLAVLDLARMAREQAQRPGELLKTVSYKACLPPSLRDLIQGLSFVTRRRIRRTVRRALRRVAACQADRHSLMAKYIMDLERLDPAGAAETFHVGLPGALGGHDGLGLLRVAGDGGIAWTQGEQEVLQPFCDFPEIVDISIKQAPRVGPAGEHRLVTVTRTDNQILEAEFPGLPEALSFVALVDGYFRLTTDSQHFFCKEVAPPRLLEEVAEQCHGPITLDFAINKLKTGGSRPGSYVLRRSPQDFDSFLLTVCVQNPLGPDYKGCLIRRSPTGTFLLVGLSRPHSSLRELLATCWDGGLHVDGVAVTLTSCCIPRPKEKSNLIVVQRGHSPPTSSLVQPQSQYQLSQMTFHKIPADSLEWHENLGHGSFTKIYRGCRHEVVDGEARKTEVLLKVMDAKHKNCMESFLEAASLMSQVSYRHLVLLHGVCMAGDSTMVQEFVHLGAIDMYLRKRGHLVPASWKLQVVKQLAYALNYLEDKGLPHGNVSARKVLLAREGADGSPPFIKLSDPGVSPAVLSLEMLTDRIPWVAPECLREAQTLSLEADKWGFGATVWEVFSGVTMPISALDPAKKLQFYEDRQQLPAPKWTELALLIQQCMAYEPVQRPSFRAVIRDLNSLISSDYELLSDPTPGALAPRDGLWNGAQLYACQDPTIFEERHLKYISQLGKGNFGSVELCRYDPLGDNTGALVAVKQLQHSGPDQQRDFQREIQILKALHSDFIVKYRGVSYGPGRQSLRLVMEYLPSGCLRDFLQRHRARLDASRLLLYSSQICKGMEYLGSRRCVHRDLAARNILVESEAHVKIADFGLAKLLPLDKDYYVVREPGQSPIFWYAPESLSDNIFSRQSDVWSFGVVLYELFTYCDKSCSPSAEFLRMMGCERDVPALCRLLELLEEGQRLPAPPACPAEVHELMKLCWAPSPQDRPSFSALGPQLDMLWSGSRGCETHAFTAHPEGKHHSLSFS
# Outline: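 ELISA of JAK3 kinase activity with absorbance read at 450 nm. Compounds were tested from DMSO dilution series at 100-fold the measurement concentrations (1000–0.01 μM), diluted up to 20 times in assay buffer, against a DMSO negative control. IC50 was estimated by non-linear regression of absorbance.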
# T1 sequence (O60674 whole entry): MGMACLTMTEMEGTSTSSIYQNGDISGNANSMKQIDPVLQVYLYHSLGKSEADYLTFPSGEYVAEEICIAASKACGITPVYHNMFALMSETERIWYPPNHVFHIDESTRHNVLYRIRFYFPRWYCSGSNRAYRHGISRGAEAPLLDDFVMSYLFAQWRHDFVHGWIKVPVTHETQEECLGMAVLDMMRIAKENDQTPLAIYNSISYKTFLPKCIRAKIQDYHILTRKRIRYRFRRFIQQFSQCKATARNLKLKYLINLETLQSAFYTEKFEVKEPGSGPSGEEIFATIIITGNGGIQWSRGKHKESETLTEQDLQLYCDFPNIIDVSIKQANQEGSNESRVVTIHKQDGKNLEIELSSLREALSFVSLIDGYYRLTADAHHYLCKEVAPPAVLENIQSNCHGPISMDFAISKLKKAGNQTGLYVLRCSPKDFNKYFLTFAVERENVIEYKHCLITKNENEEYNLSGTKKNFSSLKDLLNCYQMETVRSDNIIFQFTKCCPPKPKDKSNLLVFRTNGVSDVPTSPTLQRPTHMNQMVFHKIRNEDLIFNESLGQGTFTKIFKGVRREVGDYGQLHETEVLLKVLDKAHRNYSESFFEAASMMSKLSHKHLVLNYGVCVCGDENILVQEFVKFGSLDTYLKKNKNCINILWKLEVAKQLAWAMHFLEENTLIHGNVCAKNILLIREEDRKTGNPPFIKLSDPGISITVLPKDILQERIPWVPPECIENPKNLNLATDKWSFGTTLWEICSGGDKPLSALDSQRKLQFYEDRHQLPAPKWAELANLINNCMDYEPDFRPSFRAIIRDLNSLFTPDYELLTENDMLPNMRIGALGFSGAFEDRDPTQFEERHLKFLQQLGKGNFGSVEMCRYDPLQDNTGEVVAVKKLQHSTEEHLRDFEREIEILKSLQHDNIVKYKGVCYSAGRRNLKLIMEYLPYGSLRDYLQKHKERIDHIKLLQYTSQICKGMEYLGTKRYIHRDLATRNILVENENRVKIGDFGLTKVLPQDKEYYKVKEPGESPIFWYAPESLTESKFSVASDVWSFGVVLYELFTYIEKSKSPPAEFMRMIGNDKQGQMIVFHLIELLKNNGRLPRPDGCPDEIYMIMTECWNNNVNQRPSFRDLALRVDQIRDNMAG
Compound,IC50 [1] [nM],IC50 [2] [nM]
"C[C@H](Nc1nc(Cl)cc(Nc2cnccn2)n1)c1ccc(F)cc1 [Example 9, (S)-6-Chloro-N^2-[1-(4-fluorophenyl)ethyl]-N^4-(pyrazin-2-yl)pyrimidine-2,4-diamine]",16,360
"C[C@H](Nc1nc(NCc2ccccn2)cc(Nc2cnccn2)n1)c1ccc(F)cc1 [Example 106, (S)—N^2-[1-(4-Fluorophenyl)ethyl]-N^4-(pyrazin-2-yl)-N^6-(pyridin-2-ylmethyl)pyrimidine-2,4,6-triamine]",1.9,110
"C[C@H](Nc1nc(Nc2cnccn2)cc(-c2nn[nH]n2)n1)c1ccc(F)cc1 [Example 75, (S)—N^2-[1-(4-Fluorophenyl)ethyl]-N^4-(pyrazin-2-yl)-6-(2H-tetrazol-5-yl)pyrimidine-2,4-diamine]",12,630
"C[C@H](Nc1nc(Nc2cnccn2)cc(N2CCC[C@@H]2CO)n1)c1ccc(F)cc1 [Example 70, ((R)-1-{2-[(S)-1-(4-Fluorophenyl)ethylamino]-6-(pyrazin-2-ylamino)pyrimidin-4-yl}pyrrolidin-2-yl)methanol hydrochloride]",1.5,65
"CNC(=O)c1ccc(Nc2cnccn2)nc1N[C@@H](C)c1ccc(F)cc1 [Example 185, (S)-2-[1-(4-Fluorophenyl)ethylamino]-N-methyl-6-(pyrazin-2-ylamino)nicotinamide]",4.2,380
"C[C@H](Nc1cc(-c2cnn(Cc3ccccc3)c2)cc(Nc2cnccn2)n1)c1ccc(F)cc1 [Example 113, (S)-4-(1-Benzyl-1H-pyrazol-4-yl)-N^2-[1-(4-fluorophenyl)ethyl]-N^6-(pyrazin-2-yl)pyridine-2,6-diamine]",4.9,200
"C[C@H](Nc1nc(Nc2cnccn2)cc(N2CC(C)(O)C2)n1)c1ccc(F)cc1 [Example 184, (S)-1-{2-[1-(4-Fluorophenyl)ethylamino]-6-(pyrazin-2-ylamino)pyrimidin-4-yl}-3-methylazetidin-3-ol hydrochloride]",0.92,45
"C[C@H](Nc1cc(-c2ccnn2C)cc(Nc2cnccn2)n1)c1ccc(F)cc1 [Example 47, (S)—N^2-[1-(4-Fluorophenyl)ethyl]-4-(1-methyl-1H-pyrazol-5-yl)-N^6-(pyrazin-2-yl)pyridine-2,6-diamine]",12,1300
"C[C@H](Nc1nc(Nc2cnccn2)cc(N2CC(C#N)C2)n1)c1ccc(F)cc1 [Example 178, (S)-1-{2-[1-(4-Fluorophenyl)ethylamino]-6-(pyrazin-2-ylamino)pyrimidin-4-yl}azetidine-3-carbonitrile]",1,82
"C[C@H](Nc1nc(Nc2cnccn2)cc(N2C[C@H](O)CC2=O)n1)c1ccc(F)cc1 [Example 67, (R)-1-{2-[(S)-1-(4-Fluorophenyl)ethylamino]-6-(pyrazin-2-ylamino)pyrimidin-4-yl}-4-hydroxypyrrolidin-2-one]",11,470
"C[C@H](Nc1nc(Nc2cnccn2)ccc1C(N)=O)c1ccc(F)cc1 [Example 187, (S)-2-[1-(4-Fluorophenyl)ethylamino]-6-(pyrazin-2-ylamino) nicotinamide]",2.4,400
"CC(C)NC(=O)C1CN(c2cc(Nc3cnccn3)nc(N[C@@H](C)c3ccc(F)cc3)n2)C1 [Example 191, (S)-1-{2-[1-(4-Fluorophenyl)ethylamino]-6-(pyrazin-2-ylamino)pyrimidin-4-yl}-N-isopropylazetidine-3-carboxamide]",1.4,31
"C[C@H](Nc1cc(NS(C)(=O)=O)cc(Nc2cnccn2)n1)c1ccc(F)cc1 [Example 209, (S)—N-{2-[1-(4-Fluorophenyl)ethylamino]-6-(pyrazin-2-ylamino)pyridin-4-yl}methanesulfonamide hydrochloride]",7.1,440
"C[C@H](Nc1nc(Nc2cnccn2)cc(N2CCC(C(=O)NS(C)(=O)=O)CC2)n1)c1ccc(F)cc1 [Example 122, (S)-1-{2-[1-(4-Fluorophenyl)ethylamino]-6-(pyrazin-2-ylamino)pyrimidin-4-yl}-N-(methylsulfonyl)piperidine-4-carboxamide]",0.4,30

# Other lines, results leading:
IC50 [1] [nM],IC50 [2] [nM],Compound
3,220,"C[C@H](Nc1nc(Nc2cnccn2)cc(-c2ccnc(F)c2)n1)c1ccc(F)cc1 [Example 93, (S)—N^2-[1-(4-Fluorophenyl)ethyl]-6-(2-fluoropyridin-4-yl)-N^4-(pyrazin-2-yl)pyrimidine-2,4-diamine]"
10,360,"C[C@H](Nc1cc(N2CC(O)(C(F)(F)F)C2)cc(Nc2cnccn2)n1)c1ccc(F)cc1 [Example 206, (S)-1-{2-[1-(4-Fluorophenyl)ethylamino]-6-(pyrazin-2-ylamino)pyridin-4-yl}-3-(trifluoromethyl)azetidin-3-ol hydrochloride]"
1.2,63,"C[C@H](Nc1nc(Nc2cnccn2)cc(N2CC(CN)C2)n1)c1ccc(F)cc1 [Example 230, (S)-6-[3-(Aminomethyl)azetidin-1-yl]-N^2-[1-(4-fluorophenyl)ethyl]-N^4-(pyrazin-2-yl)pyrimidine-2,4-diamine]"
3.7,120,"C[C@H](Nc1nc(Nc2cnccn2)ccc1C(=O)N1CCOCC1)c1ccc(F)cc1 [Example 188, (S)-{2-[1-(4-Fluorophenyl)ethylamino]-6-(pyrazin-2-ylamino)pyridin-3-yl}(morpholino)methanone dihydrochloride]"
1.1,24,"4-{2-[(1S)-1-(4-Fluorophenyl)ethylamino]-6-(pyrazin-2-ylamino)pyrimidin-4-yl}-1λ^6,4-thiomorpholin-1,1-dione [Example 226]"
2.2,65,"C[C@H](Nc1nc(NCCN(C)C)cc(Nc2cnccn2)n1)c1ccc(F)cc1 [Example 62, (S)—N^4-[2-(Dimethylamino)ethyl]-N^2-[1-(4-fluorophenyl)ethyl]-N^6-(pyrazin-2-yl)pyrimidine-2,4,6-triamine dihydrochloride]"
1.3,66,"C[C@H](Nc1cc(N2CCN(S(C)(=O)=O)CC2)cc(Nc2cnccn2)n1)c1ccc(F)cc1 [Example 124, (S)—N^2-[1-(4-Fluorophenyl)ethyl]-4-[4-(methylsulfonyl)piperazin-1-yl]-N^6-(pyrazin-2-yl)pyridine-2,6-diamine hydrochloride]"
1.1,51,"C[C@H](Nc1cc(OCCCO)cc(Nc2cnccn2)n1)c1ccc(F)cc1 [Example 41, hydrochloride]"
1.9,120,"C[C@H](Nc1nc(Nc2cnccn2)cc(-c2ccccn2)n1)c1ccc(F)cc1 [Example 14, (S)—N^2-[1-(4-Fluorophenyl)ethyl]-N^4-(pyrazin-2-yl)-6-(pyridin-2-yl)pyrimidine-2,4-diamine]"
2.8,170,"C[C@H](Nc1cc(N2CC(C)(O)C2)cc(Nc2cnccn2)n1)c1ccc(F)cc1 [Example 205, (S)-1-{2-[1-(4-Fluorophenyl)ethylamino]-6-(pyrazin-2-ylamino)pyridin-4-yl}-3-methylazetidin-3-ol hydrochloride]"
